Entries after “also recorded” stand apart in the source; their conditions may differ.
Tests used:
[1] = system: MDA-MB-468 Rb-deficient TNBC cells; assay: Cell cycle progression, Rb-deficient TNBC cells; format: cell-based
SUM149 TNBC cells = assay: In vitro growth inhibition (SRB), SUM149; format: cell-based
Experimental: (§1) In vitro growth inhibition assay: Growth inhibitory potency was evaluated using the SRB assay. Briefly, cells were plated in 96-well in triplicate and treated with drugs (0.0065 μM to 100 μM) 24 h after seeding. Following drug treatment, the cells were fixed using 50 μl of cold TCA (50%) for 1 h at 4° C., washed five times with tap water, and stained for 30 min at room temperature with SRB (0.4%) in acetic acid (0.5%). The plates were subsequently rinsed five times with acetic acid (1%) and allowed to air dry. The resulting purple residue was dissolved in Tris base (200 μl, 10 mM), and optical densities read on a ELx808 BioTek microplate reader. […] values were determined using the GraphPad Prism software.

[2] = system: Rb-deficient MDA-MB-468 TNBC cells; assay: Apoptosis assay (AnnexinV/PI), MDA-MB-468; format: cell-based
Experimental: (§2) Apoptosis assay: Apoptotic rates were analyzed and quantified by flow cytometry following AnnexinV/PI staining on SUM159 and MDA-MB-468 breast cancer cells.

SUM159 TNBC xenografts = assay: Orthotopic SUM159 TNBC xenograft (mammary fat pad); format: in vivo, NSG mice
Experimental: We further assessed our compound on breast cancer tumorigenesis in vivo, through orthotopic transplantation of SUM159 TNBC cells into the mammary fat pad of NSG mice. […] Drugs were administered through i.p. daily injections for two weeks (50 mg/kg) and tumor volumes were measured, as per our team optimized protocol^10,19.
In vivo studies: All mice were housed and handled in accordance to the approved guidelines of the Canadian Council on Animal Care (CCAC) “Guide to the Care and Use of Experimental Animals” and under the conditions and procedures approved by the Animal Care Committee of McGill University (AUP #7497). The NSG mouse breeders were purchased from Jackson Laboratory (California, US). Female and male NSG mice between 7 and 9 weeks of age were bred and maintained in the animal facility of the Research Institute of the McGill University Health Center, as per the guidelines of the McGill University Animal Care Committee.
Xenograft model: Human breast cancer cells, SUM159 (1×10^6/mouse) were diluted in 1:1 with Matrigel and then inoculated in 8-week old, female NSG mice by mammary fat pad route to generate breast cancer tumor. Tumor sizes were measured with a digital electronic caliper three times per week to reach maximum volume of 1000 mm3 prior to euthanasia. Tumor volumes were calculated according to the following formula: [4/3×π×(Length/2)×(Width/2)2] to generate a growth curve.

[3] = system: SUM159 triple negative breast cancer cells; assay: ALDH+ cancer stem cell numbers (ALDEFLUOR, flow cytometry), SUM159; format: cell-based, human; details: TNBC (SUM159); equimolar concentrations vs existing CDK4/6 inhibitors
Experimental: Flow cytometry was used to measure the ALDH+ CSC numbers, as previously described^6,11-13. […] As a result, KP108 was further selected as the first lead compound.
ALDEFLUOR assay was performed as described in the manufacturer's protocol, 1×10^6 SUM159 cells were centrifuged and resuspended in 1 ml ALDH assay buffer. 5 μl substrate was added into the cell suspension. For negative control, 500 μl cell suspension were then transferred into a new tube containing 5 μl DEAB. Cells were then incubated for 40 min at 37° C. Percentage of ALDH+ cells were analyzed with Accuri C6 flow cytometer and Flowjo software.

CDK4/cyclin D3 = CDK4/cyclin D3 (Homo sapiens, UniProt P11802); assay: In vitro kinase assay, CDK4/cyclin D3; format: biochemical
Chain of CDK4/cyclin D3 (P11802 whole entry): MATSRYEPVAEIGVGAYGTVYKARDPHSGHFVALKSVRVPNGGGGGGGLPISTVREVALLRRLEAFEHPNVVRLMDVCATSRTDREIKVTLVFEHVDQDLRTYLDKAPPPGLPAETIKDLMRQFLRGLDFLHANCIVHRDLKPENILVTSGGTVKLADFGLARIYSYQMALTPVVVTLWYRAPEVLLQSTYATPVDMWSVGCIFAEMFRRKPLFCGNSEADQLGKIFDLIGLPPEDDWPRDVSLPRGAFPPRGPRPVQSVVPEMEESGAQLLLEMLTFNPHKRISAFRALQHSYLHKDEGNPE
Chain of CDK4/cyclin D3 (P30281 whole entry partner): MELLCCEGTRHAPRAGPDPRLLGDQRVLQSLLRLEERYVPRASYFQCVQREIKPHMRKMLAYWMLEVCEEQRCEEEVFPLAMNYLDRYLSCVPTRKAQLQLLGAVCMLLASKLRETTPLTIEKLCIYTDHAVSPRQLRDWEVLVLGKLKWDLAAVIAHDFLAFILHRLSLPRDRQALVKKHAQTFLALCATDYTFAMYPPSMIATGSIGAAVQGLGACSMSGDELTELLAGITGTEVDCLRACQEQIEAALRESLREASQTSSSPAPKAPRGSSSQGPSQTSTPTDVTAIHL
From the text: (§3) In vitro kinase profiling: To assess on-target and off-target kinase affinity and specificity of our lead inhibitor KP108 in a full kinome profiling, we will test the lead compound against Reaction Biology Corporation four panels (Wild Type. Panel (374 kinases), Mutant Panel (232 kinases), Atypical Panel (20 kinases), Lipid Panel (17 lipid kinases). This was outsourced to Reaction Biology Corporation, a biopharmaceutical company focused on the development of kinase inhibitors (http://www.reactionbiology.com/webapps/site/).

[4] = molecular target: Polo-like Kinase-1 (PLK1) (Homo sapiens, UniProt P53350); assay: Kinase profiling / inhibition of PLK1; format: biochemical; details: panel of 50 kinases
Chain of Polo-like Kinase-1 (PLK1) (P53350 whole entry): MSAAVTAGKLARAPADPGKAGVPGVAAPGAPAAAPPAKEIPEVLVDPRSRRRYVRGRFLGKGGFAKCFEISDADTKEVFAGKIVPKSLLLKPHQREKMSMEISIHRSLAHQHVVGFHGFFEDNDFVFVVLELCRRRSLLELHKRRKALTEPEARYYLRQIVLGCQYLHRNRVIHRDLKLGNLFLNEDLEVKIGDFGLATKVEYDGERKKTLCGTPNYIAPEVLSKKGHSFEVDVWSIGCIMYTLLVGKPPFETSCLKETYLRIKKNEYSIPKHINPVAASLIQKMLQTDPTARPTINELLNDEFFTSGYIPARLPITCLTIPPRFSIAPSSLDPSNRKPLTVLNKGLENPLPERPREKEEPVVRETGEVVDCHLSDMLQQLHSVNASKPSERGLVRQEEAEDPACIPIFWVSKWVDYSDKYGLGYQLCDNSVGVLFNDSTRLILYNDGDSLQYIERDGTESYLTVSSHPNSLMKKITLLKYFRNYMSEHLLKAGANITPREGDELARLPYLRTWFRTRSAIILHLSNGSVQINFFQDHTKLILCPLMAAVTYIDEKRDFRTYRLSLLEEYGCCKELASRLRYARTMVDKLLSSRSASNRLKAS
From the text: (§4) As expected, at these high concentrations, the relative % of inhibition is saturated at nearly 100% for both CDK4 and CDK6. To validate CDK4/6 and PLK1 as functional KP108 targets, we then assessed CDK4-mediated Rb phosphorylation (Ser780) and PLK1-mediated autophosphorylation (Thr210) in vitro.
(§5) […] This was outsourced to Reaction Biology Corporation, a biopharmaceutical company focused on the development of kinase inhibitors (http://www.reactionbiology.com/webapps/site/).

prostate cancer cells = assay: In cellulo testing, prostate cancer; format: cell-based
Experimental: (§6) Cell Culture: All the cell lines used were cultured at 37° C. in 5% CO2. HEK293T and MDA were maintained in Dulbecco's Modified Eagle Medium (DMEM) (Wisent Bio) with 10% fetal bovine serum (FBS) (Gibco). SUM159 was maintained in Ham's F-12 media with 5% FBS, 5 μg/mL insulin and 1 μg/mL hydrocortisone (Wisent Bio). HPAF-II was maintained in Eagle's Minimum Essential Medium (EMEM) (Wisent Bio) with 10% FBS. PC-3 was maintained in F-12K medium with 10% FBS.
as §1

SUM159 lung metastasis = assay: Preclinical lung metastasis model (tail vein injection of TNBC cells); format: in vivo; details: NSG mice, daily I.P. 50 mg/kg for 2 weeks
Experimental: To then functionally assess our lead in a preclinical model of tumor metastasis, immune-deficient non-obese diabetic scid gamma (NSG) mice were injected intravenously with 10^6 TNBC cells. […] Lungs were collected and stained with Bouin's solution and, the numbers of lung metastatic nodules were quantified. In vivo studies: All mice were housed and handled in accordance to the approved guidelines of the Canadian Council on Animal Care (CCAC) “Guide to the Care and Use of Experimental Animals” and under the conditions and procedures approved by the Animal Care Committee of McGill University (AUP #7497). The NSG mouse breeders were purchased from Jackson Laboratory (California, US). Female and male NSG mice between 7 and 9 weeks of age were bred and maintained in the animal facility of the Research Institute of the McGill University Health Center, as per the guidelines of the McGill University Animal Care Committee. Intravenous injection model: cells (1×106/each) were injected by tail vein route to develop lung metastases. The mice were euthanized with a maximum of 42-day (SUM159) post cancer cells injection. The lung tissues were counted for metastases nodules post Bouin's solution fixation.

pancreatic cancer cells = assay: In cellulo testing, pancreatic cancer; format: cell-based
Experimental: as §6, §1

CDK6/cyclin D3 = CDK6/cyclin D3 (Homo sapiens, UniProt Q00534); assay: In vitro kinase assay, CDK6/cyclin D3; format: biochemical
Chain of CDK6/cyclin D3 (Q00534 whole entry): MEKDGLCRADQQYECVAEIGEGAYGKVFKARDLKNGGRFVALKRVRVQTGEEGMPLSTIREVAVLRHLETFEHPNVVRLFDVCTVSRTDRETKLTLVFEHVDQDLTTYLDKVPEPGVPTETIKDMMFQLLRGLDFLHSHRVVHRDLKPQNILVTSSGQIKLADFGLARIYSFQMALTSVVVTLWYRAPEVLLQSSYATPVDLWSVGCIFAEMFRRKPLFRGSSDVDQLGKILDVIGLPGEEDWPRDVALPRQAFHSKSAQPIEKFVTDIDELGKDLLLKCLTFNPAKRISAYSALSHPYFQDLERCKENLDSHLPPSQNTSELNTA
Chain of CDK6/cyclin D3 (P30281 whole entry partner): as the sequence (P30281 whole entry partner) above
From the text: as §3

[5] = system: Rb-deficient MDA-MB-438 cell line; assay: In vitro growth inhibition (SRB), Rb-deficient MDA-MB-438; format: cell-based
Experimental: as §1

[6] = system: SUM159 Rb-positive TNBC cells; assay: Cell cycle progression, Rb-positive TNBC cells; format: cell-based, human
[7] = system: cell lines representing different models of solid tumors (breast, prostate and pancreatic cancers); assay: Growth inhibition in cell lines representing different solid tumors; format: cell-based; details: all tumor types tested: breast
Experimental: as §1

[8] = system: PLK1-mediated autophosphorylation (Thr210); assay: Immunoblotting of PLK1 autophosphorylation in TNBC cells; format: cell-based
From the text: as §4
(§7) As PLK1 is overexpressed in 80% of metastatic breast cancers and the fact that it acts by blocking the G2-M phase of the cell cycle, this provides an attractive added value for KP108, further expanding its potential tumor growth inhibitory capacity.
(§8) Western Blot After washing the infected cells with ice-cold PBS twice, 300 μL of ice-cold cell lysis buffer (1M Tris-HCl, 5M NaCl, 10% Triton, 100 mM EDTA, 100 mM Na3VO4, ×100 Protease Inhibitor, 10× Phosphatase Inhibitor) was added to the dish. All the adherent cells were scraped off the dish and the cell suspension were transferred to a microcentrifuge tube. The cell suspension was left to incubated on ice for 10 min and the cell lysate mixture was centrifuge at 12,000 RPM for 20 mins at 4° C. The supernatant was transferred to a new microcentrifuge tube on ice. The protein concentration was determined using the BCA Kit (ThermoFisher). The lysate samples were diluted in 5×SDS Buffer and were heated at 95° C. for 5 min. The ladder and the samples were loaded into the wells of a SDS PAGE gel and the gel was then run at 100V. […]

[9] = system: panel of 50 different kinases; assay: Kinase profiling against a panel of 50 kinases at 100 nM; format: biochemical; details: 100 nM range, except PLK1
From the text: as §4, §5

[10] = system: Rb-positive SUM159 TNBC cells; assay: Apoptosis assay (AnnexinV/PI), SUM159; format: cell-based, human
Experimental: as §2

PLK family members = assay: Effects on PLK family members; format: biochemical
[11] = system: CDK4-mediated Rb phosphorylation (Ser780); assay: Immunoblotting of Rb phosphorylation in TNBC cells; format: cell-based
From the text: as §4, §7, §8

MDA-MB-231 TNBC cells = assay: In vitro growth inhibition (SRB), MDA-MB-231; format: cell-based
Experimental: as §1

[12] = system: SKBR3 HER2+ breast cancer cells; assay: ALDH+ cancer stem cell numbers (ALDEFLUOR, flow cytometry), SKBR3; format: cell-based; details: equimolar concentrations vs existing CDK4/6 inhibitors
[13] = system: CSCs (tumorsphere formation); assay: Tumorsphere assay; format: cell-based; details: in vitro
Experimental: Tumorsphere assays: Monolayer cells were enzymatically dissociated into single cells with trypsin-EDTA. Cells were plated at 10,000 cells per well in a 24-well low-attachment plate (Coming). Cells were grown for 7 days in DMEM/F12 supplemented with B27 (Invitrogen) in the presence of 10 ng/ml EGF and 10 ng/ml bFGF. Tumorsphere-forming efficiency was calculated as the number of spheres divided by the number of singles cells seeded, expressed as a percentage.

animal health / weight (SUM159 TNBC xenografts; treated mice, 50 mg/kg i.p. daily): did not affected animal health
selectivity to CDK4 than CDK6 (CDK4/cyclin D3; CDK4 vs CDK6): 26 times
IC50 (CDK4/cyclin D3; in vitro kinase assay): 0.77 nM
relative % of inhibition, CDK4 (CDK4/cyclin D3; kinase panel, 100 nM range): ~100%
IC50 (CDK6/cyclin D3; in vitro kinase assay): 20.4 nM
relative % of inhibition, CDK6 (CDK6/cyclin D3; kinase panel, 100 nM range): ~100%
IC50 compared with palbociclib [7]: lower IC50in all tumor types tested
off-target cross-reactivity in kinase panel [9]: no or little cross-reactivity
Compound: C=CC(=O)Nc1ccc(C(=O)N2CCN(c3ccc(Nc4ncc5c(C)c(C(C)=O)c(=O)n(C6CCCC6)c5n4)nc3)CC2)cc1 [KP108, N-(4-(4-(6-((6-acetyl-8-cyclopentyl-5-methyl-7-oxo-7,8-dihydropyrido[2,3-d]pyrimidin-2-yl)amino}pyridin-3-yl)piperazine-1-carbonyl)phenyl)acrylamide]
effect on cell cycle progression [1]: efficiently induce G2 arrest; also recorded: dose-dependent increase in the G2 phase
activity in cellulo (SUM149 TNBC cells): great activity in cellulo
pro-apoptotic effect [2]: significant pro-apoptotic effect; also recorded: almost complete cell death
primary tumor development (tumor volume) (SUM159 TNBC xenografts; NSG mice, i.p. daily for two weeks, 50 mg/kg): great efficacy and sustained activity; also recorded: great efficacy in preventing primary tumor development
tumor growth once injections were stopped (SUM159 TNBC xenografts; after end of the two-week 50 mg/kg i.p. treatment): growth inhibitory effects sustained over time, even once injections were stopped
elimination of ALDH+ CSCs [3]: significant superior efficacy; also recorded: nearly maximal efficacy
inhibition of PLK1 [4]: efficiently inhibit; also recorded: highlighting PLK1 as a potential KP108 target
activity in cellulo (prostate cancer cells): very active
lung colonization / lung metastatic nodules (SUM159 lung metastasis): great efficacy and sustained activity; also recorded: significantly prevented, to almost completely block lung colonization
activity in cellulo (pancreatic cancer cells): very active
activity in cellulo [5]: great activity in cellulo
effect on cell cycle progression [6]: induce G1 arrest
block of PLK1 autophosphorylation (Thr210) [8]: efficiently block phosphorylation
pro-apoptotic effect [10]: significant pro-apoptotic effect
effects on other PLK family members (PLK family members): only targets PLK1
block of Rb phosphorylation (Ser780) [11]: efficiently block phosphorylation
activity in cellulo (MDA-MB-231 TNBC cells): great activity in cellulo
elimination of ALDH+ CSCs [12]: significant superior efficacy; also recorded: nearly maximal efficacy
reduction of tumorsphere formation [13]: superior efficacy in reducing tumorsphere formation

— patent US12195456B1, “Single molecules having mixed CDK4, CDK6, PLK1 targeting properties” (priority 2019, dated 2025)
